Measured values as given in the supplement of paper PMC10307832.

compound: CC(C)CCN1c2nc(Nc3cc(F)c(O)c(F)c3)ncc2N(C)C(=O)C1C [BI-D1870]; experiment: relative viability (nuclei count vs DMSO), 5 days (fraction); higher = more cells survive; conditions: 0.04 µM
Outline: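 Vehicle-anchored 1536-well plates of lung cancer cell lines, held overnight at 37 °C, were pinned with five library-drug doses (not always all listed) spaced by √10. No medium change followed over the next 5 days, after which the cells were fixed, permeabilised and Hoechst-stained together and imaged at 4×. Nuclei were counted with MetaXpress, and viability is treated-well nuclei over vehicle-well nuclei, taken as a median across plates. Plates passed with control CV below 25% and at least one doubling.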

| Cell Line | relative viability |
| --- | --- |
| NCI-H2085 | 1.06 |
| Calu-6 | 1.11 |
| HCC-366 | 1.02 |
| NCI-H1666 | 1.12 |
| NCI-H596 | 0.986 |
| LK-2 | 1.14 |
| NCI-H2087 | 1.13 |
| SK-MES-1 | 1.05 |
| H3255 | 1.01 |
| COR-L23 | 1.12 |
| COR-L 105 | 0.895 |
| IA-LM | 1.13 |
| LOU-NH91 | 1.05 |
| NCI-H2170 | 1.06 |
| NCI-H2405 | 1.07 |
| HOP-62 | 1.18 |

| Cell Line | relative viability |
| --- | --- |
| HCC-44 | 1.04 |
| A549 | 1.06 |
| LU99A | 1.01 |
| BEN | 1.03 |
| HARA | 1.03 |
| HCC-78 | 0.952 |
| NCI-H322M | 0.964 |
| LCLC-97TM1 | 1.3 |
| NCI-H2009 | 1.11 |
| A-427 | 1.18 |
| NCI-H661 | 1.03 |
| NCI-H1734 | 1.02 |
| NCI-H460 | 1.04 |
| NCI-H2347 | 1.14 |
| SK-LU-1 | 1.07 |
| NCI-H1395 | 0.905 |

same assay, conditions: 0.1265 µM

| Cell Line | relative viability |
| --- | --- |
| NCI-H2085 | 0.95 |
| Calu-6 | 0.865 |
| HCC-366 | 0.928 |
| NCI-H1666 | 1.01 |
| NCI-H596 | 0.912 |
| LK-2 | 1 |
| NCI-H2087 | 0.977 |
| SK-MES-1 | 0.911 |
| H3255 | 0.97 |
| COR-L23 | 0.945 |
| COR-L 105 | 0.836 |
| IA-LM | 0.863 |
| LOU-NH91 | 0.945 |
| NCI-H2170 | 0.925 |
| NCI-H2405 | 0.985 |
| HOP-62 | 1.01 |

| Cell Line | relative viability |
| --- | --- |
| HCC-44 | 0.876 |
| A549 | 0.908 |
| LU99A | 0.822 |
| BEN | 0.915 |
| HARA | 0.905 |
| HCC-78 | 1 |
| NCI-H322M | 0.907 |
| LCLC-97TM1 | 0.978 |
| NCI-H2009 | 0.967 |
| A-427 | 0.945 |
| NCI-H661 | 0.974 |
| NCI-H1734 | 0.922 |
| NCI-H460 | 0.96 |
| NCI-H2347 | 1.02 |
| SK-LU-1 | 0.91 |
| NCI-H1395 | 0.822 |

same assay, conditions: 0.4 µM

| Cell Line | relative viability |
| --- | --- |
| NCI-H2085 | 1.01 |
| Calu-6 | 0.998 |
| HCC-366 | 0.995 |
| NCI-H1666 | 0.955 |
| NCI-H596 | 0.939 |
| LK-2 | 1.28 |
| NCI-H2087 | 1.15 |
| SK-MES-1 | 0.892 |
| H3255 | 1.04 |
| COR-L23 | 1.09 |
| COR-L 105 | 0.949 |
| IA-LM | 0.913 |
| LOU-NH91 | 0.895 |
| NCI-H2170 | 0.961 |
| NCI-H2405 | 1.03 |
| HOP-62 | 0.965 |

| Cell Line | relative viability |
| --- | --- |
| HCC-44 | 0.989 |
| A549 | 0.975 |
| LU99A | 0.98 |
| BEN | 1.05 |
| HARA | 0.932 |
| HCC-78 | 0.97 |
| NCI-H322M | 0.82 |
| LCLC-97TM1 | 0.756 |
| NCI-H2009 | 1.02 |
| A-427 | 0.997 |
| NCI-H661 | 1 |
| NCI-H1734 | 0.978 |
| NCI-H460 | 0.96 |
| NCI-H2347 | 0.964 |
| SK-LU-1 | 0.972 |
| NCI-H1395 | 0.87 |

same assay, conditions: 1.265 µM

| Cell Line | relative viability |
| --- | --- |
| NCI-H2085 | 0.984 |
| Calu-6 | 0.904 |
| HCC-366 | 1.04 |
| NCI-H1666 | 1.16 |
| NCI-H596 | 1.08 |
| LK-2 | 1.21 |
| NCI-H2087 | 1.21 |
| SK-MES-1 | 0.829 |
| H3255 | 1.09 |
| COR-L23 | 1.13 |
| COR-L 105 | 0.939 |
| IA-LM | 1.05 |
| LOU-NH91 | 1.04 |
| NCI-H2170 | 0.949 |
| NCI-H2405 | 1.07 |
| HOP-62 | 1.03 |

| Cell Line | relative viability |
| --- | --- |
| HCC-44 | 1.07 |
| A549 | 1.04 |
| LU99A | 0.827 |
| BEN | 1.07 |
| HARA | 1.27 |
| HCC-78 | 1.16 |
| NCI-H322M | 0.728 |
| LCLC-97TM1 | 1.1 |
| NCI-H2009 | 0.858 |
| A-427 | 1.04 |
| NCI-H661 | 1 |
| NCI-H1734 | 0.987 |
| NCI-H460 | 0.999 |
| NCI-H2347 | 1.06 |
| SK-LU-1 | 0.997 |
| NCI-H1395 | 0.988 |

same assay, conditions: 4 µM

| Cell Line | relative viability |
| --- | --- |
| NCI-H2085 | 0.746 |
| Calu-6 | 0.676 |
| HCC-366 | 0.951 |
| NCI-H1666 | 0.99 |
| NCI-H596 | 1.03 |
| LK-2 | 0.973 |
| NCI-H2087 | 0.78 |
| SK-MES-1 | 0.617 |
| H3255 | 0.994 |
| COR-L23 | 0.83 |
| COR-L 105 | 0.888 |
| IA-LM | 0.646 |
| LOU-NH91 | 0.729 |
| NCI-H2170 | 0.843 |
| NCI-H2405 | 0.909 |
| HOP-62 | 0.949 |

| Cell Line | relative viability |
| --- | --- |
| HCC-44 | 1.03 |
| A549 | 0.848 |
| LU99A | 0.77 |
| BEN | 0.845 |
| HARA | 0.804 |
| HCC-78 | 0.875 |
| NCI-H322M | 0.748 |
| LCLC-97TM1 | 0.841 |
| NCI-H2009 | 0.513 |
| A-427 | 0.801 |
| NCI-H661 | 0.955 |
| NCI-H1734 | 0.815 |
| NCI-H460 | 0.703 |
| NCI-H2347 | 0.894 |
| SK-LU-1 | 0.669 |
